Usually solubility (kinetic) stands for the concentration staying in solution when a stock, usually in DMSO, is diluted into the medium. Usually pEC50 stands for the negative decadic logarithm of the EC50, by convention in mol/L.

pEC50: −log10 of the molar value. ≈ marks a conversion by molar mass, not a printed value. Some results are limits rather than exact numbers.

The first data set has as its system poly-ubiquitinated proteins. The data set is described as follows: Western blot of poly-ubiquitinated proteins in MM1.S cells. It counts as cell-based. Particulars: SDS-PAGE immunoblot. As to the method: MM1.S cells were treated with Compound B1 (FIG. 1A), Compound AA (FIG. 1B) and Compound E1 (FIG. 1C) for indicated periods of time. Following treatment, the cells were harvested, and the lysates resolved on SDS-PAGE. Transferred membranes were blotted with antibodies as indicated. Actin was used as loading control.
Protein analysis by Western blot. At the end of treatment period, the cells were lysed with M-PER mammalian protein extraction reagent (ThermoFisher Scientific) supplemented with protease inhibitors. Equal protein amounts were resolved on pre-cast SDS-PAGE (ThermoFisher Scientific) and transferred to a PVDF membrane. The membrane was immunoblotted with antibodies as indicated. The following antibodies were used: Ub MAb (SC-8017, Santa-Cruz), ATF4, ATF6, phospho JNK, JNK (Cell signaling); eIF2alpha, phospho eIF2alpha (Novus).
For orientation: In western blotting, separated proteins are transferred to a membrane and probed.
Consider `Cc1noc(C)c1/C=C1\CN(S(=O)(=O)CCCN(C)C)C/C(=C\c2c(C)noc2C)C1=O` [Compound E1], for which the “accumulation of poly-ubiquitinated proteins” value is “observable accumulation of poly-ubiquitinated proteins”.

System in a further data set: not listed separately
The data set is described as follows: Kinetic solubility by differential UV absorbance. Format: physicochemical. Particulars: aqueous buffer, kinetic from dmso stock; DMSO stock diluted in PBS, OD before and after centrifugation. The method, then:
FIG. 3A-3B depict the kinetic solubility of Compound B1 (FIG. 3A) and Compound E1 (FIG. 3B) as measured by differential UV absorbance of the compounds, as performed before and after centrifugation. Soluble concentrations were determined when OD was equivalent between centrifuged and non-centrifuged fractions. Compounds were dissolved from co-solvent stock, and further serially 2-fold diluted in PBS. OD was measured at the maximal absorbance for each compound before (BC) and after (AC) centrifugation, using Spark 20M, Tecan.
Kinetic solubility quantification. Compound B1/Compound E1 DMSO stock was diluted with PBS by serial 2-fold dilutions. Then, the samples were centrifuged for 5 minutes at 17,000 g to precipitate any insoluble compound. Each sample was tested at a single wave length (Compound B1 at […]; Compound E1 at […]) in duplicate before and after centrifugation to assess solubility of the compound. Soluble concentrations were determined when optical density (OD) was equivalent between centrifuged and non-centrifuged fractions.
Kinetic solubility of all Compounds was determined by differential UV absorbance before and after centrifugation. […] Solubility concentration was determined when OD was equivalent between centrifuged and non-centrifuged fractions (FIG. 3A-3B).
As to `Cc1noc(C)c1/C=C1\CN(S(=O)(=O)CCCN(C)C)C/C(=C\c2c(C)noc2C)C1=O` [Compound E1], the kinetic solubility was 2500 µM (≈ 1160 µg/mL).

In the next data set the test system is proteasome. The data set is described as follows: Proteasome activity (Proteasome-GLO) in intact MM1.S cells. It counts as cell-based. Particulars: 3 hr at 37° C. The method, then:
Proteasome activity was measured in intact MM1.S cells as cleavage of peptide substrates, specific for Trypsin like (TL), Chemotrypsin like (CTL) and Caspase like (PL) activities of the proteasome following treatment with Compound B1, Compound AA or Bortezomib (BTZ) at ˜EC50 concentrations for 3 hr at 37° C. BTZ was used as positive control.
Proteasome activity. The assay was performed only when cell viability is ≥90%. Cells were seeded in 96-well white clear bottom plates and treated with diluted compounds or vehicle control in triplicates for 3 hours at various concentrations. Catalytic activity was measured using three luminogenic proteasome substrates: Suc-LLVY-aminoluciferin (Succinyl-leucine-leucine-valine-tyrosine-aminoluciferin), Z-LRR-aminoluciferin (Z-leucine-arginine-arginine-aminoluciferin) and Z-nLPnLD-aminoluciferin (Z-norleucine-proline-norleucine-aspartate-aminoluciferin) for the chymotrypsin-like, trypsin-like and caspase-like activities, respectively (Proteasome-GLO, Promega). The emitted light was proportional to the proteasomal activity. Catalytic activity was calculated as the percent activity from control vehicle-treated cells.
MM1.S cells, were treated with Compound B1, Compound AA or Bortezomib (BTZ) at various concentrations for 3 hr at 37° C. […] Proteasome activity was measured by cleavage of proteasome-specific peptide substrates for TL, CTL and PL activities.
Consider `CC(C)C[C@H](NC(=O)[C@H](Cc1ccccc1)NC(=O)c1cnccn1)B(O)O` [Bortezomib, reference compound], for which the “inhibition of the enzymatic functions of the proteasome (TL, CTL and PL activities)” value was “specifically inhibits CTL activity”.

The next data set concerns MM cell lines. The data set is described as follows: Cell viability, ATPlite 1-step, MM cell lines. It counts as cell-based. Particulars: cell line printed N/A; read-out: Compound EC50. The method, then:
(§1) Cell Viability. The assay was performed only when cell viability was ≥90%. Cells were seeded in 96-well white clear bottom plates at concentration of 100,000 cells/mL and treated with serially diluted compounds or vehicle (DMSO) control in triplicates for 48 hours (h). Cell viability was determined using the ATPlite 1-step assay system (PerkinElmer). The method was based on the production of light caused by the reaction of ATP, which was a marker for cell viability. […] were added to the plates which were read in a plate reader for luminescence. The emitted light is proportional to the ATP concentration. Viability was calculated as the percent of viable cells from control vehicle-treated cells. EC50 was calculated using Prism software.
(§2) Potency of compounds were assessed by viability assay.
With `CC(=O)N(C)CCC(=O)N1C/C(=C\c2ccc(Cl)c(Cl)c2)C(=O)/C(=C/c2ccc(Cl)c(Cl)c2)C1` [Compound B29], the pEC50 was not above 6.00.

In the next data set the test system is U266. The data set is described as follows: Cell viability, ATPlite 1-step, MM cell lines. It counts as cell-based. Particulars: Homo sapiens, U-266; U266 MM cell line; 48 hours; read-out: Compound EC50. The method, then:
as §1, §2
(ATP-based viability assays read luminescence as a measure of living cells.)
Consider `CNC(=O)CCC(=O)N1C/C(=C\c2ccc(Cl)c(Cl)c2)C(=O)/C(=C/c2ccc(Cl)c(Cl)c2)C1` [Compound B24], for which the pEC50 is 6.00 to 6.52.

On to `O=C1/C(=C/c2ccc(Cl)c(Cl)c2)CN(C(=O)CNc2ccccc2)C/C1=C\c1ccc(Cl)c(Cl)c1` [Compound B9], for which the pEC50 was not above 6.00.

`O=C1/C(=C/c2ccc(Cl)c(Cl)c2)CN(C(=O)C(Cc2ccccc2)C(=O)O)C/C1=C\c1ccc(Cl)c(Cl)c1` (centres unmarked) [Compound B15]: the negative-log EC50 (pEC50) was not above 6.00.

For `CNC(=O)CC(=O)N1C/C(=C\c2ccc(Cl)c(Cl)c2)C(=O)/C(=C/c2ccc(Cl)c(Cl)c2)C1` [Compound B30], the pEC50 is more than 6.52.

For the molecule `COCCS(=O)(=O)N1C/C(=C\c2ccc(Cl)c(Cl)c2)C(=O)/C(=C/c2ccc(Cl)c(Cl)c2)C1` [Compound D1], the negative-log EC50 (pEC50) is more than 6.52.

As to `CNCC(=O)N1C/C(=C\c2ccc(Cl)c(Cl)c2)C(=O)/C(=C/c2ccc(Cl)c(Cl)c2)C1` [Compound B10], the pEC50 is not above 6.00.

On to `CC(=O)NCCC(=O)N1C/C(=C\c2ccc(Cl)c(Cl)c2)C(=O)C(Cc2ccc(Cl)c(Cl)c2)C1` (centres unmarked) [Compound B27], for which the pEC50 was not above 6.00.

For the molecule `CC(=O)NCC(=O)N1C/C(=C\c2ccc(Cl)c(Cl)c2)C(=O)/C(=C/c2ccc(Cl)c(Cl)c2)C1` [Compound B25], the pEC50 was more than 6.52.

For `COC(Cc1ccccc1)C(=O)N1C/C(=C\c2ccc(Cl)c(Cl)c2)C(=O)/C(=C/c2ccc(Cl)c(Cl)c2)C1` (centres unmarked) [Compound B17], the negative logarithm of the EC50 (pEC50) was more than 6.52.

Turning to `CN(C)C(Cc1ccccc1)C(=O)N1C/C(=C\c2ccc(Cl)c(Cl)c2)C(=O)/C(=C/c2ccc(Cl)c(Cl)c2)C1` (centres unmarked) [Compound B32], the negative logarithm of the EC50 (pEC50) is more than 6.52.

With `N[C@@H](Cc1ccccn1)C(=O)N1C/C(=C\c2ccc(Cl)c(Cl)c2)C(=O)/C(=C/c2ccc(Cl)c(Cl)c2)C1` [Compound B18], the pEC50 was more than 6.52.

For `CC(=O)N[C@H](CO)C(=O)N1C/C(=C\c2ccc(C#N)cc2)C(=O)/C(=C/c2ccc(C#N)cc2)C1` [Compound B7, N-[(2R)-1-[(3E,5E)-3,5-bis[(4-cyanophenyl)methylidene]-4-oxopiperidin-1-yl]-3-hydroxy-1-oxopropan-2-yl]acetamide], the pEC50 is 6.00 to 6.52.

`CC(=O)NCC(=O)N1C/C(=C\c2ccc(F)c(C#N)c2)C(=O)/C(=C/c2ccc(F)c(C#N)c2)C1` [Compound B5, N-{2-[(3E,5E)-3,5-bis[(3-cyano-4-fluorophenyl)methylidene]-4-oxopiperidin-1-yl]-2-oxoethyl}acetamide]: the negative logarithm of the EC50 (pEC50) was more than 6.52.

Take `O=C1/C(=C/c2ccc(Cl)c(Cl)c2)CN(C(=O)C(O)Cc2ccccc2)C/C1=C\c1ccc(Cl)c(Cl)c1` (centres unmarked) [Compound B14]: the pEC50 is 6.00 to 6.52.

On to `N[C@@H](Cc1ccccc1)C(=O)N1C/C(=C\c2ccccc2)C(=O)/C(=C/c2ccc(Cl)c(Cl)c2)C1` [Compound B21], for which the pEC50 was 6.00 to 6.52.

Turning to `C#CCN(C)CC(=O)NCC(=O)N1C/C(=C\c2ccc(C#N)cc2)C(=O)/C(=C/c2ccc(C#N)cc2)C1` [Compound B3], the pEC50 was more than 6.52.

In the case of `O=C1/C(=C/c2ccc(Cl)c(Cl)c2)CN(C(=O)CCc2ccccc2)C/C1=C\c1ccc(Cl)c(Cl)c1` [Compound B12], the pEC50 was 6.00 to 6.52.

`CC(C)C(Nc1ccccc1)C(=O)N1C/C(=C\c2ccc(Cl)c(Cl)c2)C(=O)/C(=C/c2ccc(Cl)c(Cl)c2)C1` (centres unmarked) [Compound B28]: the pEC50 was more than 6.52.

With `COCCNCC(=O)N1C/C(=C\c2ccc(Cl)c(Cl)c2)C(=O)/C(=C/c2ccc(Cl)c(Cl)c2)C1` [Compound B11], the pEC50 is not above 6.00.

As to `N[C@@H](Cc1ccccc1)C(=O)N1C/C(=C\c2ccc(Cl)c(Cl)c2)C(=O)/C(=C/c2cc(Cl)ccc2Cl)C1` [Compound B22], the negative-log EC50 (pEC50) was more than 6.52.

Turning to `O=C1/C(=C/c2ccc(Cl)c(Cl)c2)CN(C(=O)C2COCCN2)C/C1=C\c1ccc(Cl)c(Cl)c1` (centres unmarked) [Compound B20], the negative-log EC50 (pEC50) was more than 6.52.

`N[C@@H](Cc1cccc(O)c1)C(=O)N1C/C(=C\c2ccc(Cl)c(Cl)c2)C(=O)/C(=C/c2ccc(Cl)c(Cl)c2)C1` [Compound B19]: the negative-log EC50 (pEC50) was more than 6.52.

In a further data set the test system is MM1.S. The data set is described as follows: Cell viability, ATPlite 1-step, MM cell lines. Format: cell-based. Particulars: Homo sapiens; MM1.S MM cell line; 48 hours; read-out: Compound EC50. The method, then: as §1, §2
In the case of `CN(CCCN=[N+]=[N-])CC(=O)NCC(=O)N1C/C(=C\c2ccc(C#N)cc2)C(=O)/C(=C/c2ccc(C#N)cc2)C1` [Compound B2], the negative-log EC50 (pEC50) is more than 6.52.

With `CN(C)CCCS(=O)(=O)N1C/C(=C\c2ccc(F)c(C(F)(F)F)c2)C(=O)/C(=C/c2ccc(F)c(C(F)(F)F)c2)C1` [Compound CA], the negative-log EC50 (pEC50) was more than 6.52.

Take `CN(C)CCS(=O)(=O)N1C/C(=C\c2ccc(C#N)cc2)C(=O)/C(=C/c2ccc(C#N)cc2)C1` [Compound BA]: the negative-log EC50 (pEC50) was more than 6.52.

Consider `CC(=O)NC1(C(=O)N2C/C(=C\c3ccc(Cl)c(Cl)c3)C(=O)/C(=C/c3ccc(Cl)c(Cl)c3)C2)CC1` [Compound B23], for which the negative-log EC50 (pEC50) is more than 6.52.

Regarding `CN(C)CCCS(=O)(=O)N1C/C(=C\c2ccc(C#N)cc2)C(=O)C(Cc2ccc(C#N)cc2)C1` (centres unmarked) [Compound F1], the negative-log EC50 (pEC50) is more than 6.52.

Turning to `CC(=O)NCCC(=O)N1C/C(=C\c2ccc(Cl)c(Cl)c2)C(=O)/C(=C/c2ccc(Cl)c(Cl)c2)C1` [Compound B13], the negative-log EC50 (pEC50) is more than 6.52.

Take `Cc1noc(C)c1/C=C1\CN(S(=O)(=O)CCCN(C)C)C/C(=C\c2c(C)noc2C)C1=O` [Compound E1]: the negative-log EC50 (pEC50) was more than 6.52.

Take `N#Cc1ccc(/C=C2\CN(C(=O)CNC(=O)CO)C/C(=C\c3ccc(C#N)cc3)C2=O)cc1` [Compound B8]: the pEC50 is more than 6.52.

On to `O=C1/C(=C/c2ccc(Cl)c(Cl)c2)CN(C(=O)C2(Nc3ccccc3)CC2)C/C1=C\c1ccc(Cl)c(Cl)c1` [Compound B16], for which the pEC50 is more than 6.52.

Take `C#CCN(C)CC(=O)NCC(=O)N1C/C(=C\c2ccc(C#N)cc2)C(=O)/C(=C/c2ccc(C#N)cc2)C1` [Compound B3]: the pEC50 was more than 6.52.

Consider `CC(=O)NCC(=O)N1C/C(=C\c2ccc(C#N)cc2)C(=O)/C(=C/c2ccc(C#N)cc2)C1` [Compound B6, N-{2-[(3E,5E)-3,5-bis[(4-cyanophenyl)methylidene]-4-oxopiperidin-1-yl]-2-oxoethyl}acetamide], for which the pEC50 was more than 6.52.

On to `O=C1/C(=C/c2ccc(Cl)c(Cl)c2)CN(C(=O)C2(Nc3ccccc3)CC2)CC1Cc1ccc(Cl)c(Cl)c1` (centres unmarked) [Compound B26], for which the pEC50 was not above 6.00.

For the origin of these results see patent US20200399262A1, “COMPOUNDS FOR INHIBITING PROTEIN DEGRADATION AND METHODS OF USE THEREOF IN THE TREATMENT OF CANCER” (PI Therapeutics Ltd, priority 2018, published 2020).
